Reference: US7250399B2, “Compounds having growth hormone releasing activity” (The Administrators of the Tulane Educational Fund, priority 1998, dated 2007)
Several values for one entry are separate records, joined by “and”; a condition that tells them apart may be missing. Identical values can stand only once. Square brackets hold non-standard residues; d marks the D form. Ends that are not written are not given here. d2Nal = N[C@H](Cc1ccc2ccccc2c1)C(=O)O

Columns and labels:
Growth Hormone release [1] = assay: In Vivo Release of Growth Hormone in Adult Beagle Dogs; parameters: unit not given here; settings: oral dose 1 mg/kg, 1 mg/kg
Description: (§1) In vitro and in vivo activity of certain compounds were determined in rats and adult beagle dogs (in vivo activity only).

Growth Hormone release [2] = assay: In Vivo GH Release in Rats (i.v., serum GH by RIA); parameters: species or system Sprague-Dawley rats; settings: for In Vivo Release of Growth Hormone in Rat, GH: i.v., serum 10 min after injection
Description: Immature female Sprague-Dawley rats were obtained from the Charles River Laboratories (Wilmington, Mass.). After arrival they were housed at 25° C. with a 14:10 hour light:dark cycle. Water and Purina rat chow were available ad libitum. Pups were kept with their mothers until 21 days of age.
Twenty-six day old rats, six rats per treatment group, were anesthetized interperitoneally with 50 mg/kg of pentobarbital 20 minutes prior to i.v. treatment with peptide. Normal saline with 0.1% gelatin was the vehicle for intravenous (i.v.) injections of the peptides. The anesthetized rats, weighing 55-65 grams, were injected i.v. with the quantity of grown hormone releasing compounds indicated in Table 3. Injection was made as a 0.1 mL solution into the jugular vein.
All animals were sacrificed by guillotine 10 minutes after final test injection (see Table 3). Trunk blood for the determination of blood GH levels was collected following decapitation. After allowing the blood to clot, it was centrifuged and the serum was separated from the clot. Serum was kept frozen until the day of sampling for radioimmunoassay (RIA) determination of growth hormone levels according to the following procedure, as developed by the National Institute of Arthritis, Diabetes and Digestive and Kidney Diseases (NIADDK).
Reagents are generally added to the RIA analysis tubes at a single sitting, at refrigerator temperature (about 4° C.) in the following sequence: • (a) buffer, • (b) “cold” (i.e., non-radioactive) standard or unknown serum sample to be analyzed, • (c) radio-iodinated growth hormone antigen, and • (d) growth hormone antiserum.
Reagent addition is generally carried out so that there is achieved a final RIA tube dilution of about 1:30,000 (antiserum to total liquid volume; vol:vol).
The mixed reagents are then typically incubated at room temperature (about 25° C.) for about 24 hours prior to addition of a second antibody (e.g., goat or rabbit anti-monkey gamma globulin serum) which binds to and causes precipitation of the complexed growth hormone antiserum. Precipitated contents of the RIA tubes are then analyzed for the number of counts in a specified period of time in a gamma scintillation counter. A standard curve is prepared by plotting number of radioactive counts versus growth hormone (GH) level. GH levels of unknown are then determined by reference to the standard curve.
Serum GH was measured by RIA with reagents provided by the National Hormone and Pituitary Program.
Serum levels in Tables 3 and 4 are recorded in ng/mL in terms of the rat GH standard of 0.61 International Units/mg (IU/mg). Data is recorded as the mean ±standard error of the mean (SEM). Statistical analysis was performed with Student's t-test. In Table 3, the results shown are the average of studies with six rats.

Growth Hormone release [3] = assay: In Vitro Release of Growth Hormone in Rat; assay type: cell-based
Description: as §1

[4] = tested on: short-statured children with various degrees of GH deficiency; settings: cited from earlier work

Row | Substance | In Vivo Release of Growth Hormone in Adult Beagle Dogs (Growth Hormone release [1]; time 0.5 hr) | In Vivo Release of Growth Hormone in Adult Beagle Dogs (Growth Hormone release [1]; time 1 hr) | In Vivo Release of Growth Hormone in Adult Beagle Dogs (Growth Hormone release [1]; time 2 hr) | In Vivo Release of Growth Hormone in Adult Beagle Dogs (Growth Hormone release [1]; time 3 hr) | In Vivo Release of Growth Hormone in Adult Beagle Dogs (Growth Hormone release [1]; time 4 hr) | In Vivo Release of Growth Hormone in Adult Beagle Dogs (Growth Hormone release [1]; time 6 hr) | In Vivo Release of Growth Hormone in Rat, GH (Growth Hormone release [2]; compound at 3 (dose unit not given)) | In Vivo Release of Growth Hormone in Rat, GH (Growth Hormone release [2]; compound at 10 (dose unit not given)) | In Vivo Release of Growth Hormone in Rat, GH (Growth Hormone release [2]; compound at 30 (dose unit not given)) | In Vitro Release of Growth Hormone in Rat, GH (Growth Hormone release [3]; compound at .001 (dose unit not given)) | In Vitro Release of Growth Hormone in Rat, GH (Growth Hormone release [3]; compound at .003 (dose unit not given)) | In Vitro Release of Growth Hormone in Rat, GH (Growth Hormone release [3]; compound at .01 (dose unit not given)) | In Vitro Release of Growth Hormone in Rat, GH (Growth Hormone release [3]; compound at .03 (dose unit not given)) | In Vitro Release of Growth Hormone in Rat, GH (Growth Hormone release [3]; compound at .1 (dose unit not given)) | In Vitro Release of Growth Hormone in Rat, GH (Growth Hormone release [3]; compound at .3 (dose unit not given)) | effect on height velocity compared with chronic recombinant human growth hormone (rhGH) administration ([4]; in vivo) | rate of height velocity ([4]; short-statured children, 2-3 times per day over a 2 year period) | GH ng/ml, GHRP-2 (.03) (Growth Hormone release [2]; rat, GHRP-2 reference standard, dose (.03) (dose unit not given))
1 | N-2-hydroxylethyl-Aib-DTrp-DPro-diisobutylamide [R^1 = -N-2-OHethyl/DPro-diisobutylamide] | 102 and 62 | 26 and 30 | 25 and 19 | 10 | 6.1 and 3.8 | 4.0 and 2.5 | 156 ng/mL | 259 ng/mL | 451 ng/mL | 452 ng/mL | 326 ng/mL | 526 ng/mL | 820 ng/mL | 1163 ng/mL | 1217 ng/mL |  |  | 
2 | [dA][d2Nal]AW[dF]K-NH2 [GHRP-2] |  |  |  |  |  |  |  |  |  |  |  |  |  |  |  | less effective | accelerated | 811 ng/mL
